Data from patent US20220183294A1, “PESTICIDALLY ACTIVE AZOLE AMIDE COMPOUNDS” (SYNGENTA CROP PROTECTION AG, priority 2019, published 2022).

Legend:
Assay type in all cases: in vivo
[1] = test system: Plutella xylostella (Diamond back moth); test: Example B5: Plutella xylostella (Diamond back moth), artificial diet, 24-well; details: 192 h, application rate 200 ppm, eggs, 8 days after infestation, read-out: control in at least one of the two categories (mortality or growth inhibition)
Procedure: Example B5: Plutella xylostella (Diamond back moth)
24-well microtiter plates with artificial diet were treated with aqueous test solutions prepared from 10′000 ppm DMSO stock solutions by pipetting. After drying, Plutella eggs were pipetted through a plastic stencil onto a gel blotting paper and the plate was closed with it. The samples were assessed for mortality and growth inhibition in comparison to untreated samples 8 days after infestation.
(§1) The following compounds gave an effect of at least 80% control in at least one of the two categories (mortality or growth inhibition) at an application rate of 200 ppm: […]

[2] = test system: Chilo suppressalis (Striped rice stemborer); test: Example B4: Chilo suppressalis (Striped rice stemborer), artificial diet; details: 144 h, application rate 200 ppm, L2 larvae, 6 days after infestation, read-out: control in at least one of the three categories (mortality, anti-feedant effect, or growth inhibition)
Procedure: Example B4: Chilo suppressalis (Striped rice stemborer) 24-well microtiter plates with artificial diet were treated with aqueous test solutions prepared from 10′000 ppm DMSO stock solutions by pipetting. After drying, the plates were infested with L2 larvae (6-8 per well). The samples were assessed for mortality, anti-feeding effect, and growth inhibition in comparison to untreated samples 6 days after infestation. Control of Chilo suppressalis by a test sample is given when at least one of the categories mortality, anti-feedant effect, and growth inhibition is higher than the untreated sample.

[3] = test system: Spodoptera littoralis (Egyptian cotton leaf worm); test: Example B9: Spodoptera littoralis (Egyptian cotton leaf worm), sprayed cotton leaf discs; details: foliar, 72 h, application rate 200 ppm, L1 larvae, 3 days after infestation, read-out: control in at least one of the three categories (mortality, anti-feedant effect, or growth inhibition)
Procedure: Example B9: Spodoptera littoralis (Egyptian cotton leaf worm)
Cotton leaf discs were placed onto agar in 24-well microtiter plates and sprayed with aqueous test solutions prepared from 10′000 ppm DMSO stock solutions. After drying the leaf discs were infested with five L1 larvae. The samples were assessed for mortality, anti-feeding effect, and growth inhibition in comparison to untreated samples 3 days after infestation. Control of Spodoptera littoralis by a test sample is given when at least one of the categories mortality, anti-feedant effect, and growth inhibition is higher than the untreated sample.

[4] = test system: Diabrotica balteata (Corn root worm); test: Example B1: Diabrotica balteata (Corn root worm), sprayed maize sprouts; details: 96 h, application rate 200 ppm, L2 larvae, 4 days after infestation, read-out: control in at least one of the two categories (mortality or growth inhibition)
Procedure: Example B1: Diabrotica balteata (Corn root worm)
Maize sprouts placed onto an agar layer in 24-well microtiter plates were treated with aqueous test solutions prepared from 10′000 ppm DMSO stock solutions by spraying. After drying, the plates were infested with L2 larvae (6 to 10 per well). The samples were assessed for mortality and growth inhibition in comparison to untreated samples 4 days after infestation.
as §1

CC(NC(=O)c1cc(C(F)(F)F)cc(C(F)(F)C2CC2)c1)c1ncnn1-c1ccc(C#N)cn1 (centres unmarked) [P4, N-[1-[2-(5-cyano-2-pyridyl)-1,2,4-triazol-3-yl]ethyl]-3-[cyclopropyl(difluoro)methyl]-5-(trifluoromethyl)benzamide]
≥ 80%: percent control (mortality or growth inhibition) at 200 ppm [1] | percent control (mortality, anti-feedant effect or growth inhibition) at 200 ppm [2] | percent control (mortality, anti-feedant effect or growth inhibition) at 200 ppm [3] | percent control (mortality or growth inhibition) at 200 ppm [4]

CC(NC(=O)c1cc(C(F)(F)F)nc(C2(C#N)CC2)c1)c1ncnn1-c1ncc(OC(F)F)cn1 (centres unmarked) [P8, 2-(1-cyanocyclopropyl)-N-[1-[2-[5-(difluoromethoxy)pyrimidin-2-yl]-1,2,4-triazol-3-yl]ethyl]-6-(trifluoromethyl) pyridine-4-carboxamide]
≥ 80%: percent control (mortality or growth inhibition) at 200 ppm [1] | percent control (mortality, anti-feedant effect or growth inhibition) at 200 ppm [2] | percent control (mortality, anti-feedant effect or growth inhibition) at 200 ppm [3] | percent control (mortality or growth inhibition) at 200 ppm [4]

CC(NC(=O)c1cc(C(F)(F)F)nc(C2(C#N)CC2)c1)c1ncnn1-c1ncc(OCC(F)F)cn1 (centres unmarked) [P10, 2-(1-cyanocyclopropyl)-N-[1-[2-[5-(2,2-difluoroethoxy)pyrimidin-2-yl]-1,2,4-triazol-3-yl]ethyl]-6-(trifluoromethyl) pyridine-4-carboxamide]
≥ 80%: percent control (mortality or growth inhibition) at 200 ppm [1] | percent control (mortality, anti-feedant effect or growth inhibition) at 200 ppm [2] | percent control (mortality, anti-feedant effect or growth inhibition) at 200 ppm [3] | percent control (mortality or growth inhibition) at 200 ppm [4]

CC(NC(=O)c1cc(C(F)(F)F)cc(C(F)(F)C2CC2)c1)c1ncnn1-c1ncc(OCC(F)F)cn1 (centres unmarked) [P11, 3-[cyclopropyl(difluoro)methyl]-N-[1-[2-[5-(2,2-difluoroethoxy)pyrimidin-2-yl]-1,2,4-triazol-3-yl]ethyl]-5-(trifluoromethyl) benzamide]
≥ 80%: percent control (mortality or growth inhibition) at 200 ppm [1] | percent control (mortality, anti-feedant effect or growth inhibition) at 200 ppm [2] | percent control (mortality, anti-feedant effect or growth inhibition) at 200 ppm [3] | percent control (mortality or growth inhibition) at 200 ppm [4]

CC(NC(=O)c1cc(C2CC2C(F)(F)F)cc(C(F)(F)F)c1)c1ncnn1-c1ccc(C#N)cn1 (centres unmarked) [P13, N-[1-[2-(5-cyano-2-pyridyl)-1,2,4-triazol-3-yl]ethyl]-3-(trifluoromethyl)-5-[2-(trifluoromethyl)cyclopropyl]benzamide]
≥ 80%: percent control (mortality or growth inhibition) at 200 ppm [1] | percent control (mortality, anti-feedant effect or growth inhibition) at 200 ppm [2] | percent control (mortality, anti-feedant effect or growth inhibition) at 200 ppm [3] | percent control (mortality or growth inhibition) at 200 ppm [4]

CC(NC(=O)c1cc(C2CC2)nc(C(F)(F)F)c1)c1ncnn1-c1ccc(C#N)cn1 (centres unmarked) [P15, N-[1-[2-(5-cyano-2-pyridyl)-1,2,4-triazol-3-yl]ethyl]-2-cyclopropyl-6-(trifluoromethyl)pyridine-4-carboxamide]
≥ 80%: percent control (mortality or growth inhibition) at 200 ppm [1] | percent control (mortality, anti-feedant effect or growth inhibition) at 200 ppm [2] | percent control (mortality, anti-feedant effect or growth inhibition) at 200 ppm [3] | percent control (mortality or growth inhibition) at 200 ppm [4]

CC(NC(=O)c1cc(C(F)(F)F)cc(S(=O)(=O)C(F)(F)F)c1)c1ncnn1-c1ncc(OCC(F)F)cn1 (centres unmarked) [P16, N-[1-[2-[5-(2,2-difluoroethoxy)pyrimidin-2-yl]-1,2,4-triazol-3-yl]ethyl]-3-(trifluoromethyl)-5-(trifluoromethylsulfonyl) benzamide]
≥ 80%: percent control (mortality or growth inhibition) at 200 ppm [1] | percent control (mortality, anti-feedant effect or growth inhibition) at 200 ppm [2] | percent control (mortality, anti-feedant effect or growth inhibition) at 200 ppm [3] | percent control (mortality or growth inhibition) at 200 ppm [4]

CC(NC(=O)c1cc(C(F)(F)F)nc(C2(C#N)CC2)c1)c1ncnn1-c1ccc(OC(F)F)cn1 (centres unmarked) [P17, 2-(1-cyanocyclopropyl)-N-[1-[2-[5-(difluoromethoxy)-2-pyridyl]-1,2,4-triazol-3-yl]ethyl]-6-(trifluoromethyl) pyridine-4-carboxamide]
≥ 80%: percent control (mortality or growth inhibition) at 200 ppm [1] | percent control (mortality, anti-feedant effect or growth inhibition) at 200 ppm [2] | percent control (mortality, anti-feedant effect or growth inhibition) at 200 ppm [3] | percent control (mortality or growth inhibition) at 200 ppm [4]

CC(NC(=O)c1cc(C(F)(F)F)cc(C2(C#N)CC2)c1)c1ncnn1-c1ccc(C#N)cn1 (centres unmarked) [P18, 3-(1-cyanocyclopropyl)-N-[1-[2-(5-cyano-2-pyridyl)-1,2,4-triazol-3-yl]ethyl]-5-(trifluoromethyl) benzamide]
≥ 80%: percent control (mortality or growth inhibition) at 200 ppm [1] | percent control (mortality, anti-feedant effect or growth inhibition) at 200 ppm [2] | percent control (mortality, anti-feedant effect or growth inhibition) at 200 ppm [3]

CC(NC(=O)c1cc(C(F)(F)F)cc(C(F)(F)C2CC2)c1)c1ncnn1-c1ccc(OC(F)F)cn1 (centres unmarked) [P19, 3-[cyclopropyl(difluoro)methyl]-N-[1-[2-[5-(difluoromethoxy)-2-pyridyl]-1,2,4-triazol-3-yl]ethyl]-5-(trifluoromethyl) benzamide]
≥ 80%: percent control (mortality or growth inhibition) at 200 ppm [1] | percent control (mortality, anti-feedant effect or growth inhibition) at 200 ppm [2] | percent control (mortality, anti-feedant effect or growth inhibition) at 200 ppm [3]

CC(NC(=O)c1cc(C(F)(F)F)cc(C(F)(F)C2CC2)c1)c1ncnn1-c1ncc(OCC(F)(F)F)cn1 (centres unmarked) [P20, 3-[cyclopropyl(difluoro)methyl]-N-[1-[2-[5-(2,2,2-trifluoroethoxy)pyrimdin-2-yl]-1,2,4-triazol-3-yl]ethyl]-5-(trifluoromethyl) benzamide]
≥ 80%: percent control (mortality or growth inhibition) at 200 ppm [1] | percent control (mortality, anti-feedant effect or growth inhibition) at 200 ppm [2] | percent control (mortality, anti-feedant effect or growth inhibition) at 200 ppm [3]

CC(NC(=O)c1cc(C2CC2)cc(C(F)(F)F)c1)c1ncnn1-c1ncc(OCC(F)F)cn1 (centres unmarked) [P23, 3-cyclopropyl-N-[1-[2-[5-(2,2-difluoroethoxy)pyrimidin-2-yl]-1,2,4-triazol-3-yl]ethyl]-5-(trifluoromethyl) benzamide]
≥ 80%: percent control (mortality or growth inhibition) at 200 ppm [1] | percent control (mortality, anti-feedant effect or growth inhibition) at 200 ppm [2] | percent control (mortality, anti-feedant effect or growth inhibition) at 200 ppm [3] | percent control (mortality or growth inhibition) at 200 ppm [4]

CC(NC(=O)c1cc(C(F)(F)F)cc(C2(C#N)CC2)c1)c1ncnn1-c1ccc(OC(F)F)cn1 (centres unmarked) [P24, 3-(1-cyanocyclopropyl)-N-[1-[2-[5-(difluoromethoxy)-2-pyridyl]-1,2,4-triazol-3-yl]ethyl]-5-(trifluoromethyl) benzamide]
≥ 80%: percent control (mortality or growth inhibition) at 200 ppm [1] | percent control (mortality, anti-feedant effect or growth inhibition) at 200 ppm [2] | percent control (mortality, anti-feedant effect or growth inhibition) at 200 ppm [3] | percent control (mortality or growth inhibition) at 200 ppm [4]

CC(NC(=O)c1cc(C(F)(F)F)cc(C2(C#N)CC2)c1)c1ncnn1-c1ncc(OCC(F)(F)F)cn1 (centres unmarked) [P25, 3-(1-cyanocyclopropyl)-N-[1-[2-[5-(2,2,2-trifluoroethoxy)pyrimidin-2-yl]-1,2,4-triazol-3-yl]ethyl]-5-(trifluoromethyl) benzamide]
≥ 80%: percent control (mortality or growth inhibition) at 200 ppm [1] | percent control (mortality, anti-feedant effect or growth inhibition) at 200 ppm [2] | percent control (mortality, anti-feedant effect or growth inhibition) at 200 ppm [3]

CC(NC(=O)c1cc(C(F)(F)F)cc(C2(C#N)CC2)c1)c1ncnn1-c1ncc(OC(F)F)cn1 (centres unmarked) [P26, 3-(1-cyanocyclopropyl)-N-[1-[2-[5-(difluoromethoxy)pyrimidin-2-yl]-1,2,4-triazol-3-yl]ethyl]-5-(trifluoromethyl) benzamide]
≥ 80%: percent control (mortality or growth inhibition) at 200 ppm [1] | percent control (mortality, anti-feedant effect or growth inhibition) at 200 ppm [2] | percent control (mortality, anti-feedant effect or growth inhibition) at 200 ppm [3]

CC(NC(=O)c1cc(C(F)(F)F)nc(C2(C#N)CC2)c1)c1ncnn1-c1ncc(OCC(F)(F)F)cn1 (centres unmarked) [P30, 2-(1-cyanocyclopropyl)-N-[1-[2-[5-(2,2,2-trifluoroethoxy)pyrimidin-2-yl]-1,2,4-triazol-3-yl]ethyl]-6-(trifluoromethyl) pyridine-4-carboxamide]
≥ 80%: percent control (mortality or growth inhibition) at 200 ppm [1] | percent control (mortality, anti-feedant effect or growth inhibition) at 200 ppm [3]

CC(NC(=O)c1cc(C(F)(F)F)cc(C2(C#N)CC2)c1)c1ncnn1-c1ncc(OCC(F)F)cn1 (centres unmarked) [P31, 3-(1-cyanocyclopropyl)-N-[1-[2-[5-(2,2-difluoroethoxy)pyrimidin-2-yl]-1,2,4-triazol-3-yl]ethyl]-5-(trifluoromethyl) benzamide]
≥ 80%: percent control (mortality or growth inhibition) at 200 ppm [1] | percent control (mortality, anti-feedant effect or growth inhibition) at 200 ppm [2]
